According to PubChem BioAssay (NCI):
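Method: 48-hour compound exposure of cells in 96-well plates, five concentrations, linear interpolation of endpoints. Definition used: TGI = concentration required for complete inhibition of growth.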

Assays:
Experiment in all cases: growth of human tumour cells (NCI), 48 h
[1] = system: 786-0 renal
[2] = system: A498 renal
[3] = system: A549 NSCLC
[4] = system: ACHN renal
[5] = system: CAKI-1 renal
[6] = system: CCRF-CEM leukemia
[7] = system: COLO 205 colon
[8] = system: DLD-1 colon
[9] = system: DMS 114 small cell lung
[10] = system: DMS 273 small cell lung
[11] = system: EKVX NSCLC
[12] = system: HCC-2998 colon
[13] = system: HCT-116 colon
[14] = system: HCT-15 colon
[15] = system: HL-60(TB) leukemia
[16] = system: HOP-18 NSCLC
[17] = system: HOP-62 NSCLC
[18] = system: HOP-92 NSCLC
[19] = system: HT29 colon
[20] = system: IGROV1 ovarian
[21] = system: K-562 leukemia
[22] = system: KM12 colon
[23] = system: KM20L2 colon
[24] = system: LOX IMVI melanoma
[25] = system: LXFL 529 NSCLC
[26] = system: M14 melanoma
[27] = system: MALME-3M melanoma
[28] = system: MOLT-4 leukemia
[29] = system: NCI-H226 lung
[30] = system: NCI-H23 lung
[31] = system: NCI-H460 lung
[32] = system: NCI-H522 lung
[33] = system: OVCAR-3 ovarian
[34] = system: OVCAR-4 ovarian
[35] = system: OVCAR-5 ovarian
[36] = system: OVCAR-8 ovarian
[37] = system: RPMI-8226 leukemia
[38] = system: RXF-631 renal
[39] = system: SF-268 CNS
[40] = system: SF-295 CNS
[41] = system: SF-539 CNS
[42] = system: SK-MEL-2 melanoma
[43] = system: SK-MEL-28 melanoma
[44] = system: SK-MEL-5 melanoma
[45] = system: SK-OV-3 ovarian
[46] = system: SN12C renal
[47] = system: SNB-19 CNS
[48] = system: SNB-75 CNS
[49] = system: SNB-78 CNS
[50] = system: SW-620 colon
[51] = system: TK-10 renal
[52] = system: UACC-257 melanoma
[53] = system: UACC-62 melanoma
[54] = system: UO-31 renal
[55] = system: M19-MEL melanoma
[56] = system: RXF 393 renal
[57] = system: U251 CNS
[58] = system: XF 498 CNS

CC(C)C(=O)N1Cc2cc(Cl)cc(Cl)c2OC(=O)c2ccccc21
TGI [1]: > 100 µM
TGI [2]: 97.9 µM
TGI [3]: > 100 µM
TGI [4]: 72.9 µM
TGI [5]: 64 µM
TGI [6]: 94.7 µM
TGI [7]: > 100 µM
TGI [8]: > 100 µM
TGI [9]: 74 µM
TGI [10]: > 100 µM
TGI [11]: 67.2 µM
TGI [12]: 60.3 µM
TGI [13]: > 100 µM
TGI [14]: 85.9 µM
TGI [15]: 57.6 µM
TGI [16]: 93.1 µM
TGI [17]: > 100 µM
TGI [18]: 62.7 µM
TGI [19]: > 100 µM
TGI [20]: 81 µM
TGI [21]: > 100 µM
TGI [22]: > 100 µM
TGI [23]: 57.8 µM
TGI [24]: 59 µM
TGI [25]: 34.3 µM
TGI [26]: 61.7 µM
TGI [27]: 49.3 µM
TGI [28]: 62 µM
TGI [29]: 58.7 µM
TGI [30]: > 100 µM
TGI [31]: > 100 µM
TGI [32]: 40.9 µM
TGI [33]: 60.8 µM
TGI [34]: 74 µM
TGI [35]: 90 µM
TGI [36]: > 100 µM
TGI [37]: 96.8 µM
TGI [38]: > 100 µM
TGI [39]: 41.5 µM
TGI [40]: > 100 µM
TGI [41]: 35.4 µM
TGI [42]: 50 µM
TGI [43]: > 100 µM
TGI [44]: 38.3 µM
TGI [45]: 84.5 µM
TGI [46]: > 100 µM
TGI [47]: > 100 µM
TGI [48]: 96.5 µM
TGI [49]: > 100 µM
TGI [50]: 94.9 µM
TGI [51]: > 100 µM
TGI [52]: 32.8 µM
TGI [53]: 42.2 µM
TGI [54]: > 100 µM

COc1c(C)cc2c(C(C)C)c(O)c(O)c(C=O)c2c1O
TGI [1]: > 100 µM
TGI [3]: > 100 µM
TGI [4]: 93 µM
TGI [6]: > 100 µM
TGI [7]: 36.3 µM
TGI [8]: > 100 µM
TGI [9]: 37.9 µM
TGI [10]: 59.1 µM
TGI [11]: 95.1 µM
TGI [12]: > 100 µM
TGI [13]: 52 µM
TGI [14]: > 100 µM
TGI [15]: 58.3 µM
TGI [16]: 71.7 µM
TGI [18]: > 100 µM
TGI [19]: 47.1 µM
TGI [20]: > 100 µM
TGI [21]: 45.4 µM
TGI [22]: 56.1 µM
TGI [23]: 88.1 µM
TGI [24]: 68.9 µM
TGI [25]: > 100 µM
TGI [26]: 64.4 µM
TGI [55]: 81.8 µM
TGI [27]: 38.7 µM
TGI [28]: > 100 µM
TGI [29]: 57.2 µM
TGI [30]: 47.8 µM
TGI [31]: > 100 µM
TGI [32]: 60.4 µM
TGI [33]: 49.5 µM
TGI [34]: 63.9 µM
TGI [35]: 86 µM
TGI [36]: 83.8 µM
TGI [37]: > 100 µM
TGI [56]: 55.2 µM
TGI [39]: > 100 µM
TGI [40]: 86 µM
TGI [41]: 37.6 µM
TGI [42]: 37.1 µM
TGI [43]: 75.1 µM
TGI [44]: 33.1 µM
TGI [45]: > 100 µM
TGI [46]: 75.8 µM
TGI [47]: > 100 µM
TGI [48]: 90.2 µM
TGI [49]: > 100 µM
TGI [50]: > 100 µM
TGI [51]: > 100 µM
TGI [57]: 57.9 µM
TGI [52]: 59.4 µM
TGI [53]: 47.5 µM
TGI [54]: > 100 µM
TGI [58]: > 100 µM
